Among the test systems are SN12C; HCT-15; SF-295; HCT-116; TK-10; UACC-257; SW-620; KM12; HT-29; RXF 393; SR; COLO 205; CCRF-CEM; SK-MEL-5; CAKI-1; NCI-H23; SK-OV-3; HOP-92; HL-60; UACC-62.
Assay in all cases: DTP human tumour cell line panel, 48 h

The values below come from ChEMBL document CHEMBL1201862, “PubChem BioAssay data set” (2004).

A word on the GI50: it is the concentration at which growth is held to half of that of the control.

SMILES strings stand for the structures.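 Each compound was tested at five concentrations against cells in 96-well plates for 48 hours. The concentration for 50% growth inhibition is given as GI50.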 The source made the active and inactive calls. Rule as the data show it: active = GI50 up to about 1.1 µM and inactive = higher.

Turning to `COc1ccc(C2=NN(C(=O)c3cccnc3)C(O)(c3cc(F)c(Cl)cc3Cl)C2)cc1OC` (stereo unspecified), the GI50 is 15.3 µM (inactive) in the test with SN12C; 14.8 µM in the test with HCT-15; 15.5 µM (inactive) in the test with SF-295; 14.8 µM (inactive) in the test on HCT-116; 30.4 µM (inactive) in the test on TK-10; 13.6 µM (inactive) with UACC-257. The GI50 in the test on SW-620 was 17.9 µM (inactive); in the test on KM12 it was 19.1 µM (inactive); in the test on HT-29 it was 12.3 µM (inactive); with RXF 393 it was 15.5 µM (inactive); in the test with SR, 7.28 µM (inactive); in the test with COLO 205, 12.3 µM (inactive). In addition, the GI50 in the test with CCRF-CEM is 11.4 µM (inactive); with SK-MEL-5 it was 12.1 µM (inactive); with CAKI-1 it was 24.1 µM (inactive); in the test with NCI-H23, 20.4 µM (inactive); in the test with SK-OV-3 it was 26.1 µM (inactive); in the test on HOP-92, 14.1 µM (inactive). Moreover, in the test on HL-60, the GI50 is 12.8 µM (inactive).

For the compound `Cc1cc(C)nc(NS(=O)(=O)c2ccc(Nc3c4ccccc4nc4c(C(=O)Nc5ccc(S(=O)(=O)Nc6cc(C)on6)cc5)cccc34)cc2)n1`, the GI50 in the test on SN12C is 24.5 µM (inactive); in the test with HCT-15, greater than 100 µM; in the test with SF-295 it was 22.8 µM (inactive); in the test on HCT-116, 16 µM (inactive); with TK-10, 26.8 µM (inactive); in the test on UACC-257 it was 25.5 µM (inactive). The GI50 is 23.4 µM (inactive) in the test with SW-620; 20 µM (inactive) in the test with KM12; 17.8 µM (inactive) in the test on UACC-62; 19.9 µM (inactive) in the test on HT-29; 20.9 µM (inactive) with RXF 393; 27.5 µM (inactive) with SR. Besides, the GI50 is 17.7 µM (inactive) in the test on COLO 205; 18.7 µM (inactive) in the test with SK-MEL-5; 21.9 µM (inactive) in the test on CAKI-1; 22.1 µM (inactive) with NCI-H23; 27.1 µM (inactive) in the test with SK-OV-3; 18.7 µM (inactive) in the test on HOP-92. Moreover, the GI50 in the test on HL-60 is 22.8 µM (inactive).

Consider `CN(Cc1cnc2nc(N)nc(N)c2n1)c1ccc(C(=O)NC(CCC(=O)O)C(=O)O)cc1` (stereo unspecified), for which the GI50 with SN12C was < 0.011 µM (active); with HCT-15, less than 0.01 µM; with SF-295 it was < 0.0256 µM (active); in the test with HCT-116 it was < 0.01 µM (active); in the test with TK-10 it was 0.869 µM (active); in the test with UACC-257 it was 0.815 µM (active). Also, the GI50 with SW-620 is < 0.01 µM (active); in the test with KM12 it was < 0.0164 µM (active); with UACC-62, < 0.0136 µM (active); in the test on HT-29 it was < 0.01 µM (active); with RXF 393, > 100 µM (inactive); in the test on SR, < 0.01 µM (active). Also, the GI50 with COLO 205 was 0.705 µM (active); in the test with SK-MEL-5, 0.0661 µM (active); in the test with CAKI-1, < 0.0157 µM (active); in the test on NCI-H23, 0.0792 µM (active); in the test on SK-OV-3, 1.24 µM (inactive); in the test on HOP-92, 25.4 µM (inactive). For the same compound, in the test on HL-60, the GI50 is < 0.01 µM (active).

As for `CCN1CCCCCCCCCC(=N/O)/C(=N\O)C1`, the GI50 in the test on SN12C was > 100 µM (inactive); with HCT-15, greater than 100 µM; in the test on SF-295, > 100 µM (inactive); with HCT-116, > 100 µM (inactive); with TK-10, > 100 µM (inactive); in the test with UACC-257, > 100 µM (inactive). Besides, the GI50 with SW-620, with KM12, with HT-29, in the test with RXF 393, in the test with SR and in the test on CCRF-CEM was > 100 µM (inactive) each time. Moreover, the GI50 with SK-MEL-5, in the test with CAKI-1, in the test with NCI-H23, with HOP-92 and in the test on HL-60 was > 100 µM (inactive) throughout.

With `COC(=O)C1(C)OC(C)=NC1(C(=O)OC)C(=O)OC` (stereo unspecified), the GI50 with SN12C is > 100 µM (inactive); with HCT-15, greater than 100 µM; in the test on SF-295, > 100 µM (inactive); in the test on HCT-116, > 100 µM (inactive); in the test on TK-10, > 100 µM (inactive); with UACC-257, > 100 µM (inactive). The GI50 with SW-620, in the test on KM12, with UACC-62, in the test on HT-29, in the test on RXF 393 and in the test with SR was > 100 µM (inactive) each time. In addition, the GI50 in the test with COLO 205 was > 100 µM (inactive); with SK-MEL-5 it was > 100 µM (inactive); with CAKI-1 it was > 100 µM (inactive); with NCI-H23 it was > 100 µM (inactive); in the test with SK-OV-3 it was > 100 µM (inactive); with HOP-92, 1.45 µM (inactive). In the test on HL-60, the GI50 is 2.18 µM (inactive).

As to `CCCCCCCCCCCCCCCCCCC1=C(O)C(=O)C=C(OC)C1=O`, the GI50 in the test with SN12C was 45.4 µM (inactive); in the test on HCT-15, 29.5 µM; in the test with SF-295, 36.5 µM (inactive); with HCT-116, 43.7 µM (inactive); in the test with TK-10, 40.4 µM (inactive); in the test on UACC-257, 78.2 µM (inactive). For the same compound, the GI50 in the test with SW-620 was 51.4 µM (inactive); with KM12, 35.2 µM (inactive); in the test on UACC-62 it was 27.8 µM (inactive); in the test on HT-29, 88.9 µM (inactive); in the test on RXF 393, 43.6 µM (inactive); in the test with SR it was 43.8 µM (inactive). Moreover, the GI50 in the test on COLO 205 was 48.5 µM (inactive); in the test on SK-MEL-5, 40 µM (inactive); in the test with CAKI-1, 39.5 µM (inactive); in the test on NCI-H23, 26 µM (inactive); with SK-OV-3 it was > 100 µM (inactive); in the test on HOP-92 it was 80.4 µM (inactive). Also, the GI50 in the test on HL-60 was 22.5 µM (inactive).

Regarding `C/C(=C1\C(=O)C(c2ccccc2)N(c2ccccc2)C1=O)c1ccc(Cl)cc1` (stereo unspecified), the GI50 in the test on SN12C was 30.7 µM (inactive); in the test on HCT-15, 19.1 µM; in the test on SF-295, 20 µM (inactive); in the test with HCT-116, 16.4 µM (inactive); in the test on TK-10, 22 µM (inactive); in the test on UACC-257, 16.9 µM (inactive). Moreover, the GI50 was 22.8 µM (inactive) in the test on SW-620; 22.2 µM (inactive) in the test with KM12; 16.3 µM (inactive) in the test on UACC-62; 17.4 µM (inactive) with HT-29; 24 µM (inactive) in the test on RXF 393; 20.6 µM (inactive) in the test with SR. The GI50 is 16.8 µM (inactive) in the test with COLO 205; 14.5 µM (inactive) in the test with SK-MEL-5; 24.4 µM (inactive) with CAKI-1; 17.1 µM (inactive) with NCI-H23; 16.7 µM (inactive) in the test with SK-OV-3; 3.17 µM (inactive) with HOP-92. For the same compound, the GI50 in the test with HL-60 is 28.6 µM (inactive).

Take `CC1C(c2ccc(N(C)C)cc2)c2cc3c(cc2OC1N1CCCC1)OCO3` (stereo unspecified): the GI50 in the test with SN12C is 63.1 µM (inactive); with HCT-15, 36.9 µM; in the test with SF-295, 32.1 µM (inactive); in the test with HCT-116, 36.4 µM (inactive); in the test on TK-10 it was 98.6 µM (inactive); with UACC-257, > 92.5 µM (inactive). Also, the GI50 is 42 µM (inactive) in the test on SW-620; 47.2 µM (inactive) in the test on KM12; 46.1 µM (inactive) in the test on UACC-62; 32.5 µM (inactive) with HT-29; 22.9 µM (inactive) in the test on RXF 393; 38.8 µM (inactive) in the test with SR. The GI50 in the test with COLO 205 was 45 µM (inactive); in the test on CCRF-CEM, 36 µM (inactive); with SK-MEL-5 it was 30.6 µM (inactive); in the test with CAKI-1, 38.5 µM (inactive); in the test with NCI-H23 it was 58.3 µM (inactive); in the test with HOP-92 it was 6.25 µM (inactive). Moreover, in the test with HL-60, the GI50 is 28 µM (inactive).

Regarding `CCN1CCN(c2nc3ccccc3nc2C(=O)c2ccc(OC)c(OC)c2)CC1`, the GI50 is 42.1 µM (inactive) in the test with SN12C; 13.7 µM in the test with HCT-15; 11.9 µM (inactive) in the test on SF-295; 5.31 µM (inactive) with HCT-116; 22.4 µM (inactive) in the test on TK-10; 21.9 µM (inactive) in the test on UACC-257. In addition, the GI50 in the test with SW-620 is 15.7 µM (inactive); in the test on KM12, 15.4 µM (inactive); in the test with UACC-62 it was > 100 µM (inactive); in the test on HT-29, 12.6 µM (inactive); with RXF 393, 12.2 µM (inactive); in the test with SR, 7.06 µM (inactive). Besides, the GI50 in the test on COLO 205 was 1.5 µM (inactive); in the test with CCRF-CEM it was 10 µM (inactive); in the test with CAKI-1, 82.4 µM (inactive); in the test with NCI-H23, 24.3 µM (inactive); in the test on SK-OV-3 it was 12.1 µM (inactive); in the test on HOP-92, 7.48 µM (inactive). Moreover, the GI50 in the test with HL-60 is 44.1 µM (inactive).

With `CCOC(=O)c1ccc(O)cc1` [ETHYLPARABEN], the GI50 in the test on HCT-15 was greater than 100 µM; in the test on SF-295 it was > 100 µM (inactive); in the test with HCT-116, > 100 µM (inactive); with TK-10, > 100 µM (inactive); with UACC-257 it was > 100 µM (inactive); with SW-620, > 100 µM (inactive). For the same compound, the GI50 with KM12, in the test on UACC-62, with HT-29, in the test on RXF 393, in the test with SR and with COLO 205 was > 100 µM (inactive) throughout. Besides, the GI50 with CCRF-CEM, in the test with CAKI-1, in the test on NCI-H23, in the test on SK-OV-3, in the test with HOP-92 and with HL-60 was > 100 µM (inactive) in each case.

On to `CN1CCC[N+](C)=C1c1ccccc1`, for which the GI50 with SN12C was > 100 µM (inactive); in the test with HCT-15, greater than 100 µM; in the test on SF-295, > 100 µM (inactive); in the test on HCT-116, > 100 µM (inactive); in the test on TK-10 it was > 100 µM (inactive); in the test on UACC-257, > 100 µM (inactive). For the same compound, the GI50 in the test with SW-620, in the test with KM12, in the test on HT-29, in the test with RXF 393, in the test with SR and in the test on COLO 205 was > 100 µM (inactive) each time. In addition, the GI50 in the test on CCRF-CEM, in the test on SK-MEL-5, with CAKI-1, in the test with NCI-H23, in the test on SK-OV-3 and in the test on HOP-92 was > 100 µM (inactive) each time. Also, the GI50 in the test on HL-60 is > 100 µM (inactive).
